Experimental data published in publication PMC7531601, “Exploiting Lactoferricin (17–30) as a Potential Antimicrobial and Antibiofilm Candidate Against Multi-Drug-Resistant Enteroaggregative Escherichia coli” (Frontiers in Microbiology, 2020).
Read-outs that look alike come from different tables or passages of the source. Ends that are not written are not given here.

Assays:
MDR-EAEC strains = MDR-EAEC strains (n = 3)
Procedure: (§1) Initially, characterization of Lfcin (17–30) was performed by determining its minimum inhibitory concentration (MIC), minimum bactericidal concentration (MBC), in vitro stability assays (high-end temperatures, the physiological concentration of cationic salts and proteases), and in vitro safety assays (sheep erythrocyte hemolysis and secondary cell line cytotoxicity) (Supplementary Files S1–S3). The membrane permeabilization effect of Lfcin (17–30) was assessed by flow cytometry, whereas outer and inner membrane permeability of MDR-EAEC strains treated with 1 × and 2 × MIC levels of Lfcin (17–30) was carried out based on the nitrocefin activity as well as the release of cytoplasmic β-galactosidase activity, respectively (Supplementary File S4). Further, Lfcin (17–30) was evaluated for its antibacterial activity against beneficial lactobacilli (L. acidophilus MTCC 10307 and L. rhamnosus MTCC 1408) (Supplementary File S5).

[1] = tested on: preformed (48 h) MDR-EAEC biofilm; settings: preformed (48 h) biofilm of MDR-EAEC strains
Procedure: The MBEC of Lfcin (17–30) was determined against the preformed (48 h) MDR-EAEC biofilm ([Ceri et al., 1999]). MBEC value is the lowest concentration of Lfcin (17–30) that prevented the MDR-EAEC re-growth. This MBEC value of Lfcin (17–30) was further used to study the eradication of biofilm formed by MDR-EAEC strains.

HEp-2 cells = settings: MTT
Procedure: as §1
(§2) To determine the safety of Lfcin (17-30) on host cells, a haemolytic assay using sheep erythrocytes as well as cytotoxicity assay using secondary cell lines were performed with 1X, 2X and 4X MICs of Lfcin (17-30), respectively. In brief, haemolytic assay was performed, wherein the haemolytic activity of Lfcin (17-30) was tested by determining the extent of haemoglobin release from sheep erythrocytes (10%). Further, the safety aspect of Lfcin (17-30) was evaluated on secondary cell line viz., human epithelioma cell line (HEp-2), and murine macrophage cell line (RAW 264.7) by performing MTT [3-(4,5-dimethylthiazole-2-yl)-2,5-diphenyl tetrazolium bromide] assay.

RAW 264.7 cells = settings: MTT
Procedure: as §1, §2

sheep erythrocytes = sheep erythrocytes (10%)
Procedure: as §1, §2

[2] = tested on: L. acidophilus MTCC 10307; settings: 1X MIC, MRS broth, 37°C, 48 h, absorbance 600 nm and plating
Procedure: as §1
(§3) Besides, the safety aspect of Lfcin (17-30) against beneficial gut lactobacilli was also investigated. […] After incubation at 37 °C for 48 h, the antibacterial effect of AMP on commensal lactobacilli was measured by observing the absorbance at 600 nm (Thermo Scientific Multiskan GO) as well as drawing two 10 µl samples from each well and plating them onto MRS agar plates. […]

L. rhamnosus MTCC 1408 = settings: 1X MIC, MRS broth, 37°C, 48 h, absorbance 600 nm and plating
Procedure: as §1, §3

[3] = tested on: G. mellonella larvae infected with MDR-EAEC (a cocktail of three strains); assay: G. mellonella larval survival; assay type: in vivo, Galleria mellonella; settings: uninfected larvae, MIC dose, up to 120 h pi
Procedure: The final instar of G. mellonella larvae was utilized for performing the in vivo assays ([Morgan et al., 2014]). The larvae (ca. 200–250 mg) inoculated with aliquots of MDR-EAEC suspensions (10 μl) by injection using Hamilton syringe (26 gauge) via the last right pro-leg were incubated at 37°C and the observations were noted. The larvae kept in a sterile environment were provided with ad lib food during the experiment.
The determined LD50 dose for each MDR-EAEC strain in the larvae was validated and employed further in the in vivo experiments to evaluate the antibacterial efficacy of Lfcin (17–30).
Galleria mellonella larvae were grouped 40 per group for in vivo antimicrobial testing of Lfcin (17–30) as follows: group I (MDR-EAEC infection control), groups II and III (infection + treatment groups), group IV (PBS control), and group V [Lfcin(17–30) control]. Optimized LD50 dose of MDR-EAEC (a cocktail of three strains) was administered to larvae of groups I to III, while MIC dose of Lfcin (17–30) and Meropenem was administered 3 h post-infection (pi) in groups II and III, respectively. Larval group IV was injected with sterile PBS, whereas MIC dose of Lfcin (17–30) was administered in group V. […]

G. mellonella larvae = assay: LDH cytotoxicity assay of larval haemolymph; assay type: in vivo, Galleria mellonella
Procedure: Galleria mellonella larvae were grouped 40 per group for in vivo antimicrobial testing of Lfcin (17–30) as follows: group I (MDR-EAEC infection control), groups II and III (infection + treatment groups), group IV (PBS control), and group V [Lfcin(17–30) control]. Optimized LD50 dose of MDR-EAEC (a cocktail of three strains) was administered to larvae of groups I to III, while MIC dose of Lfcin (17–30) and Meropenem was administered 3 h post-infection (pi) in groups II and III, respectively. Larval group IV was injected with sterile PBS, whereas MIC dose of Lfcin (17–30) was administered in group V.
The larvae were then observed for their survival rate, melanization (Supplementary Information S7), MDR-EAEC counts (Supplementary Information S8), hemocyte density (Supplementary Information S9) ([Wand et al., 2013]), lactate dehydrogenase (LDH) cytotoxicity assay (Supplementary Information S10) ([Gibreel and Upton, 2013]), and histopathology (Supplementary Information S11) ([Perdoni et al., 2014]), at an interval of 6 h till 24 h, followed by 24-h interval up to 120 h pi.
G. mellonella (n=3 larvae per group) were analysed for the production of LDH, as a marker of cell damage, at an interval of 6 h pi for 24 h, followed by 24 h interval till 96 h pi using QuantiChrom LDH cytotoxicity assay kit, according to the manufacturer’s instructions. The positive and negative controls used in this study were […]. The absorbance was read using ELISA plate reader at 500 nm; the haemolymph from untreated larvae served as background control and the cytotoxicity was calculated as, Cytotoxicity (%) = (ODSample - ODControl)/ (ODTotal Lysis - ODControl) x 100, wherein, sample is the control absorbance of treated cell; control is the experimental absorbance of the untreated cell control and total lysis is the absorbance of Triton X-100 treated cells.

FKCRRWQWRMKKLG [Lfcin (17–30)]
MBC (MDR-EAEC strains; at least 99.9% killing after 24 h): 32 µM | MIC (MDR-EAEC strains; micro-broth dilution): 32 µM | MBEC [1]: 32 µM | cytotoxicity / morphological changes (HEp-2 cells; HEp-2, 1× and 2× MIC): remarkable morphological changes were not evident | cytotoxicity (HEp-2 cells; HEp-2, 4× MIC): moderate to higher cytotoxicity | cytotoxicity / morphological changes (RAW 264.7 cells; RAW 264.7, 1× and 2× MIC): remarkable morphological changes were not evident | cytotoxicity (RAW 264.7 cells; RAW 264.7, 4× MIC): moderate to higher cytotoxicity | Haemolysis (%) (sheep erythrocytes; MIC (1X)): non-hemolytic | Haemolysis (%) (sheep erythrocytes; MIC (2X)): non-hemolytic | antimicrobial effect on beneficial lactobacilli [2]: non-significant | antimicrobial effect on beneficial lactobacilli (L. rhamnosus MTCC 1408): non-significant | survival rate [3]: 100% | LDH cytotoxicity (G. mellonella larvae; infected larvae treated 3 h pi): cytotoxicity remained increased up to 48 h pi | LDH cytotoxicity (G. mellonella larvae; uninoculated larvae treated with MIC dose): significantly increased cytotoxicity was observed at 6 to 18 h pi
